The record followed here is patent US6403594B1, “Benzopyran derivatives” (Recordati, S.A. Chemical and Pharmaceutical Company, priority 1999, dated 2002).

Where a name gives a salt, the structure may show the parent alone.

Assay [1] deals with T1, α1a-adrenoceptor (recombinant) (Homo sapiens, UniProt P35348).
T1 construct: expressed in transfected cells
T1 sequence (P35348 1-466): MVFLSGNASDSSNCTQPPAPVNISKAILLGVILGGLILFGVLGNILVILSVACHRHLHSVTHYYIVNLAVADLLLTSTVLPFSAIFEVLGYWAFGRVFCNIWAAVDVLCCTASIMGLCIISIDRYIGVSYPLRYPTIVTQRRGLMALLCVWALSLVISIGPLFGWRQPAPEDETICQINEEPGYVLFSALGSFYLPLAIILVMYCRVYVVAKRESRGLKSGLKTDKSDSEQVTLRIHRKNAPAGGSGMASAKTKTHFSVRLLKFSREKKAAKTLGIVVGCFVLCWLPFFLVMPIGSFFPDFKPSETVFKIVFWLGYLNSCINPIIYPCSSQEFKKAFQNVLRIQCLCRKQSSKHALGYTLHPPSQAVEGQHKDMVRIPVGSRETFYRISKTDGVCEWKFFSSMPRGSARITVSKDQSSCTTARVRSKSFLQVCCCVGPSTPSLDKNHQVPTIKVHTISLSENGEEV
In words: Radioligand binding, cloned α1a-adrenoceptor ([3H]prazosin). The following applies: read-out: Affinity for recombinant α1a-adrenoceptor, cloned receptors (Ki). Here is the method:
(§1) Determination of affinity for cloned subtypes of α1-adrenoceptor subtypes was performed in membranes from cells transfected by electroporation with DNA expressing the genes encoding each α1-adrenoceptor subtype.
(§2) Non-specific binding was determined in the presence of 10 μM phentolamine.
(§3) Incubation was stopped by addition of ice-cold Tris buffer and rapid filtration through 0.2% polyethyleneimine-pretreated Schleicher & Schuell GF52 filters.
(§4) Data were expressed as mean Ki.

Assay [2] concerns the target T2, 5HT1A-serotoninergic receptor (Homo sapiens, UniProt P08908).
T2 sequence (P08908 1-422): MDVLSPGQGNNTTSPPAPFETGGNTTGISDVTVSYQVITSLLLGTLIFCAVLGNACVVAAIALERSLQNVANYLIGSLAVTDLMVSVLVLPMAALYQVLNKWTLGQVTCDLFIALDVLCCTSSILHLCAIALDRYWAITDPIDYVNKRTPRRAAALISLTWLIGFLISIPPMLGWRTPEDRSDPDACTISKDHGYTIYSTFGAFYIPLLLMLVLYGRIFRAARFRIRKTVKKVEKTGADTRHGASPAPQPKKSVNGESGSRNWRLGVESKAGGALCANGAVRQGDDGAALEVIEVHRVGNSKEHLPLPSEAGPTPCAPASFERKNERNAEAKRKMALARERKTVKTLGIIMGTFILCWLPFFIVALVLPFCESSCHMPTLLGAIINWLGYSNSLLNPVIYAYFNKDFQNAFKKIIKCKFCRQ
In words: Radioligand binding, cloned 5-HT1A-serotoninergic receptor in HeLa membranes ([3H]8-OH-DPAT). Also noted: expressed in transfected cells; host or cells: HeLa. The following applies: cloned human 5-HT1A receptor in HeLa membranes, mean Ki, read-out: Affinity for 5-HT1A receptor, cloned receptors (Ki). Here is the method:
HeLa cells were grown as monolayers in Dulbecco's Modified Eagle medium (DMEM) supplemented with 10% foetal calf serum and gentamicin (100 μg/mL), 5% CO2, at 37° C. The cells were detached from the growth flask at 95% confluence by a cell scraper and were lysed in ice-cold Tris-5-mM and EDTA-5-mM buffer (pH 7.4). The homogenates were centrifuged at 40000×g×20 minutes and the membranes were resuspended in a small volume of ice-cold buffer containing Tris 5 mM and EDTA 5 mM (pH 7.4), and immediately frozen and stored at −70° C. until use.
Non-specific binding was determined in the presence of 10 μM 5-HT. The incubation was stopped by addition of ice-cold Tris buffer and rapid filtration through 0.2% polyethyleneimine-pretreated Schleicher & Schuell filters.
as §4

Assay [3] addresses T3, α1b-adrenoceptor (recombinant) (Homo sapiens, UniProt P35368).
T3 construct: expressed in transfected cells
T3 sequence (P35368 1-520): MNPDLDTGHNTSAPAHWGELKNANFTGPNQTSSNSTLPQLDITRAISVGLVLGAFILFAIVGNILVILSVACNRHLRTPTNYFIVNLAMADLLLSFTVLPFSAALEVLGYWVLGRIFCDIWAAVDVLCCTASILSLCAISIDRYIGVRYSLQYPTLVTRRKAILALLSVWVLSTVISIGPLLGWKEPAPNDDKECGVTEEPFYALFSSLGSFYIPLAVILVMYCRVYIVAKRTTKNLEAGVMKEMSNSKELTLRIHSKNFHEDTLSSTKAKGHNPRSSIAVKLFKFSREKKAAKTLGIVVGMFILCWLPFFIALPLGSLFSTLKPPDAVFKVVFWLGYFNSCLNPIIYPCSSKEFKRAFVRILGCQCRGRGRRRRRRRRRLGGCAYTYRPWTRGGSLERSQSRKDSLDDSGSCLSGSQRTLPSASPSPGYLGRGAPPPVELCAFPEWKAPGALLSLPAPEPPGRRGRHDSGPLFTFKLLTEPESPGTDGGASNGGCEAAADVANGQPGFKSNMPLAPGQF
Briefly: Radioligand binding, cloned α1b-adrenoceptor ([3H]prazosin). The note with it: read-out: Affinity for recombinant α1b-adrenoceptor, cloned receptors (Ki). On the procedure: as §1, §2, §3, §4

For assay [4], the target named is T4, α1d-adrenoceptor (recombinant) (Homo sapiens, UniProt P25100).
T4 sequence (P25100 1-572): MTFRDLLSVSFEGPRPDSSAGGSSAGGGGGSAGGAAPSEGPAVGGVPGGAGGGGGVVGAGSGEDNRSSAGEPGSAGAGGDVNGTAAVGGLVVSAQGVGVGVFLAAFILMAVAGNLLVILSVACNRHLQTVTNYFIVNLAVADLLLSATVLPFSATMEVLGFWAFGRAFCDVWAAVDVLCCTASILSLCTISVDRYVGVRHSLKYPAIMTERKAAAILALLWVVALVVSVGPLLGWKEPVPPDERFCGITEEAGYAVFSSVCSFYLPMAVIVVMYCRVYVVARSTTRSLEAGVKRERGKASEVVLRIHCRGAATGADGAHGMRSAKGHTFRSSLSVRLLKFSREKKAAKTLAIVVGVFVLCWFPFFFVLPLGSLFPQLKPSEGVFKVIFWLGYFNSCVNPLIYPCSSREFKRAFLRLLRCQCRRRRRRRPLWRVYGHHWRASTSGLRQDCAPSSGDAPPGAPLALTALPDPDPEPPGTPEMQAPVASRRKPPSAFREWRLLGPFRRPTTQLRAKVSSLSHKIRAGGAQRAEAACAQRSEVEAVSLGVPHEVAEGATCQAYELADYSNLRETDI
Briefly: Radioligand binding, cloned α1d-adrenoceptor ([3H]prazosin). The note with it: read-out: Affinity for recombinant α1d-adrenoceptor, cloned receptors (Ki). Here is the method: as §1, §2, §3, §4

By Ki is commonly meant the dissociation constant of the complex between target and ligand, obtained from inhibition or displacement. On to `Cc1c(-c2ccccc2)oc2c(C(=O)NCCCN3CCN(c4cc(Cl)ccc4OS(=O)(=O)C(F)(F)F)CC3)cccc2c1=O` [Example 24, 8-{3-[4-(5-Chloro-2-trifluoromethanesulphonyloxyphenyl)-1-piperazinyl]-propylcarbamoyl}-3-methyl-4-oxo-2-phenyl-4H-1-benzopyran hydrochloride], for which the Ki in assay [1] came out at 4.21 nM; in assay [2] it was 140 nM; in assay [3], 7.8 nM; in assay [4] it was 33.7 nM.

Consider `Cc1c(C(N)=O)oc2c(C(=O)NCCCN3CCN(c4cc(Cl)ccc4OS(=O)(=O)C(F)(F)F)CC3)cccc2c1=O` [Example 13, 2-Carbamoyl-8-{3-[4-(5-chloro-2-trifluoromethanesulphonyloxyphenyl)-1-piperazinyl]propylcarbamoyl}-3-methyl-4-oxo-4H-1-benzopyran], for which the inhibitory constant (Ki) in assay [1] amounted to 1.61 nM; in assay [2], 31.4 nM; in assay [3], 1 nM; in assay [4], 11 nM.

On to `Cc1c(C(N)=O)oc2c(C(=O)NCCCN3CCN(c4ccccc4OCC(F)(F)F)CC3)cccc2c1=O` [Example 10, 2-Carbamoyl-8-<3-{4-[2-(2,2,2-trifluoroethoxy)phenyl]-1-piperazinyl}-propylcarbamoyl>-3-methyl-4-oxo-4H-1-benzopyran], for which the Ki stood at 0.173 nM in assay [1], 5.54 nM in assay [2], 14.3 nM in assay [3] and 6.53 nM in assay [4].

Turning to `COc1ccc(OCC(F)(F)F)cc1N1CCN(CCCNC(=O)c2cccc3c(=O)c(C)c(C(N)=O)oc23)CC1` [Example 9, 2-Carbamoyl-8-<3-{4-[2-methoxy-5-(2,2,2-trifluoroethoxy)phenyl]-1-piperazinyl}-propylcarbamoyl>-3-methyl-4-oxo-4H-1-benzopyran], the Ki in assay [1] turned out to be 28.6 nM; in assay [3] it was 94.7 nM; in assay [4], 467 nM.

Regarding `Cc1c(C(N)=O)oc2c(C(=O)NCCCN3CCN(c4ccc(F)cc4OCC(F)(F)F)CC3)cccc2c1=O` [Example 7, 2-Carbamoyl-8-<3-{4-[4-fluoro-2-(2,2,2-trifluoroethoxy)phenyl]-1-piperazinyl}-propylcarbamoyl>-3-methyl-4-oxo-4H-1-benzopyran], the Ki in assay [1] was determined as 1.01 nM; in assay [2], 12.8 nM; in assay [4] it was 6.43 nM.

On to `CNC(=O)c1oc2c(C(=O)NCCCN3CCN(c4cc(Cl)ccc4OC)CC3)cccc2c(=O)c1C` [Example 5, 8-{3-[4-(5-Chloro-2-methoxyphenyl)-1-piperazinyl]propylcarbamoyl}-3-methyl-2-methylcarbamoyl-4-oxo-4H-1-benzopyran], for which the Ki was determined as 0.57 nM in assay [1], 23.1 nM in assay [2], 2.39 nM in assay [3] and 2.05 nM in assay [4].

With `Cc1c(C(N)=O)oc2c(C(=O)NCCCN3CCN(c4cc(Cl)ccc4O)CC3)cccc2c1=O` [Example 12, 2-Carbamoyl-8-{3-[4-(5-chloro-2-hydroxyphenyl)-1-piperazinyl]-propylcarbamoyl}-3-methyl-4-oxo-4H-1-benzopyran], the Ki in assay [1] was 1.15 nM; in assay [2], 4.16 nM; in assay [3] it was 2.02 nM; in assay [4], 9.96 nM.

As for `COc1ccc(Cl)cc1N1CCN(CCCNC(=O)c2cccc3c(=O)c(C)c(C(C)=O)oc23)CC1` [Example 2, 2-Acetyl-8-{3-[4-(5-chloro-2-methoxyphenyl)-1-piperazinyl]propylcarbamoyl}-3-methyl-4-oxo-4H-1-benzopyran], the Ki in assay [1] was 0.32 nM; in assay [2] it was 12.3 nM; in assay [3], 2.34 nM; in assay [4], 2.68 nM.

As for `Cc1c(-c2ccccc2)oc2c(C(=O)NCCCN3CCN(c4cc(F)ccc4OCC(F)(F)F)CC3)cccc2c1=O` [Example 20, 8-<3-{4-[5-Fluoro-2-(2,2,2-trifluoroethoxy)phenyl]-1-piperazinyl}-propylcarbamoyl>-3-methyl-4-oxo-2-phenyl-4H-1-benzopyran], the Ki in assay [1] stood at 0.07 nM; in assay [2], 4.46 nM; in assay [3], 3.54 nM; in assay [4], 0.32 nM.

As to `COc1ccc(OCC(F)(F)F)cc1N1CCN(CCCNC(=O)c2cccc3c(=O)c(C)c(-c4ccccc4)oc23)CC1` [Example 21, 8-<3-{4-[2-Methoxy-5-(2,2,2-trifluoroethoxy)phenyl]-1-piperazinyl}-propylcarbamoyl>-3-methyl-4-oxo-2-phenyl-4H-1-benzopyran], the Ki was 2.54 nM in assay [1], 257 nM in assay [2], 31.6 nM in assay [3] and 34.7 nM in assay [4].
